According to paper PMC8878721, “Screening of TNFR1 Binding Peptides from Deinagkistrodon acutus Venom through Phage Display” (Toxins, 2022):

Tests used:
[1] = Dissolution test of DAvp-1; assay type: physicochemical
Experimental: DAvp-1, which appeared in the white lyophilized powder, was synthesized following the solid phase peptide synthesis (SPPS) Fmoc protocol, and Mass Spectrometer (MS) and HPLC were used for quantitative and qualitative verification. A purity of 95.346% was determined with the HPLC methodology (Figure 3A). The mass-to-charge ratios of [M+8H]^8+, [M+7H]^7+, [M+6H]^6+, and [M+5H]^5+ were 594.5, 679.3, 792.3, and 950.5, respectively, and the highest peak of [M+5H]^5+ was selected to calculate the molecular weight (MW). The formula is (1) MW=m/z×C−C(1) where MW is the molecular weight, m/z is the mass-to-charge ratio, and C is the charge.
Homologous modeling has been developed for predicting the 3D structure of proteins and peptides originating from various organisms, and this most accurate modeling method was widely used in structural biology. Software simulations were applied to test if there was a positive interaction with TNFR1 [37]. […] A promising solubility is conducive to the development of drugs.

[2] = test system: pro-inflammatory cytokines; details: snake venom extracts; ref [2],[3],[4]; cited from earlier work
Description: Snake venoms have been used as traditional Chinese medicines for hundreds of years, and they have a positive effect on autoimmune inflammatory diseases such as rheumatoid arthritis. However, their active, effective ingredients and their mechanisms of action are not fully understood yet. Studies have shown that snake venom is a mixture of proteins and peptides with various biological activities, including anti-tumor, anti-inflammatory, anti-stroke, and analgesic activities. For example, snake venom extracts such as Cathelicidin-BF and Cathelicidin-CATH can inhibit pro-inflammatory cytokin ...

Compound	solubility in PBS ([1]; 1 × phosphate buffer saline (PBS) (pH 7.1), lyophilized powder, qualitative)	solubility in DMSO ([1]; dimethyl sulfoxide (DMSO), lyophilized powder, qualitative)	solubility (overall) ([1]; dissolution test, in words)	solubility in ultrapure water ([1]; ultrapure water, lyophilized powder, qualitative)	effect on pro-inflammatory cytokines [2]
CSCC[C@H](NC(=O)[C@H](CCCNC(=N)N)NC(=O)CNC(=O)[C@H](CCCNC(=N)N)NC(=O)[C@H](CC(C)C)NC(=O)[C@@H](NC(=O)[C@H](CC(C)C)NC(=O)[C@H](CO)NC(=O)[C@@H](N)CC(N)=O)C(C)C)C(=O)N[C@@H](CCCNC(=N)N)C(=O)N[C@@H](CC(=O)O)C(=O)N[C@H](C(=O)N[C@@H](CCCCN)C(=O)N[C@H](C(=O)N[C@@H](CCCNC(=N)N)C(=O)N[C@@H](CC(=O)O)C(=O)N[C@@H](CC(=O)O)C(=O)NCC(=O)N[C@@H](CCCNC(=N)N)C(=O)N[C@@H](CCCCN)C(=O)N[C@@H](CO)C(=O)N1CCC[C@H]1C(=O)N[C@@H](CO)C(=O)N[C@@H](Cc1c[nH]cn1)C(=O)N[C@@H](Cc1c[nH]cn1)C(=O)N[C@@H](CO)C(=O)N[C@@H](CCCCN)C(=O)N[C@@H](Cc1ccccc1)C(=O)N[C@@H](CO)C(=O)NCC(=O)NCC(=O)N[C@H](C(=O)N[C@@H](CCCNC(=N)N)C(=O)N[C@@H](CC(N)=O)C(=O)N[C@@H](Cc1c[nH]c2ccccc12)C(=O)N[C@@H](CCC(N)=O)C(=O)N[C@@H](CCCCN)C(=O)N[C@@H](CC(C)C)C(=O)N[C@H](C(=O)N[C@@H](CCCCN)C(=O)N[C@@H](CC(C)C)C(=O)O)C(C)C)[C@@H](C)O)C(C)C)C(C)C [DAvp-1]	could be dissolved	could be dissolved	good solubility	could be dissolved	
Cathelicidin-BF					can inhibit pro-inflammatory cytokines
